Experimental data published in patent publication US20100257640A1, “METHOD FOR GROWING SUGARCANE” (SYNGENTA CROP PROTECTION, INC., priority 2007, published 2010).

Columns and labels:
[1] = system: sugar cane Variety RB 86-7515; test: Greenhouse pot test: effect of formulated clothianidin on vigour; assay type: in vivo; details: carretels; result in words
Description: Greenhouse test with sugarcane buds growing in pots were conducted to study the effect of clothianidin equivalent to an application rate of 200 g ai. ha^−1 on “vigour”, evaluating tillers, plant height, leaf width and culm diameter. This trial was conducted on sugar cane Variety RB 86-7515.
1) carretel with one bud treated with clothianidin (200 g ai. ha^−1) 2) carretel with one bud treated with clothianidin (200 g ai. ha^−1)+15% v/v of polymer 3) stalk with 3 buds untreated 4) carretel with one bud untreated+15% v/v of polymer 5) carretel with one bud untreated 6) stalk with 3 buds treated with clothianidin (200 g ai. ha^−1).
Twenty 1 L pots were filled with 16 L of clay soil, 1.6 L of sand and 8 g of nitrogen, 28 g of phosphorus (P2O5) and 16 g of potassium (K2O). Six carretels of 4 cm length with one bud were planted in each pot (treatments 1, 2, 4 and 5). Two stalks with three buds were planted in each control pot (treatments 3 and 6) to simulate conventional planting. A layer of 3 cm of soil was used to cover the carretels. The carretels of treatments 1 and 2 were treated with 200 g ai.ha^−1 of clothianidin, by dipping the carretels in a slurry for 3 min. The stalks were treated simulating a furrow application at 100 L.ha^−1 of slurry. The pots were maintained with adequate moisture during the test. […]

[2] = system: sugar cane Variety RB 86-7515; test: Greenhouse pot test: effect of formulated fipronil on vigour; assay type: in vivo; details: result in words
Description: Greenhouse test with sugarcane buds growing in pots were conducted to study the effect of fipronil equivalent to an application rate of 200 g. ha^−1 on “vigour”, evaluating tillers, plant height, leaf width and culm diameter on sugar cane Variety RB 86-7515.
Twenty 1 L pots were filled with 16 L of clay soil, 1.6 L of sand and 8 g of nitrogen, 28 g of phosphorus (P2O5) and 16 g of potassium (K2O). Six carretels of 4 cm length with one bud were planted in each pot (treatments 1, 2, 4 and 5). Two stalks with three buds were planted in each control pot (treatments 3 and 6) to simulate conventional planting. A layer of 3 cm of soil was used to cover the carretels. The carretels of treatments 1 and 2 were treated with 200 g ai.ha^−1 of fipronil, by dipping the carretels in the slurry for 3 min, based on the uptake capacity of carretels. The stalks were treated simulating a furrow application at 100 L.ha^−1 of slurry. Experimental design adopted was randomized complete block with four replications. The pots were maintained with adequate moisture during the test. Evaluations of: plant height, leaf width, culm diameter and number of tillers were done at 20, 30 and 42 days after planting.

[3] = system: sugar cane Variety RB 86 7515; test: Greenhouse pot test: effect of formulated imidacloprid on vigour; assay type: in vivo; details: result in words
Description: 1) carretel with one bud treated with Imidacloprid (1200 g. ha^−1) 2) carretel with one bud treated with Imidacloprid (1200 g. ha^−1)+15% v/v of polymer 3) stalk with 3 buds untreated 4) carretel with one bud untreated 5) carretel with one bud untreated+15% v/v of polymer 6) stalk with 3 buds treated with Imidacloprid (1200 g. ha^−1).
Twenty 1 L pots were filled with 16 L of clay soil, 1.6 L of sand and 8 g of nitrogen, 28 g of phosphorus (P2O5) and 16 g of potassium (K2O). Six carretels of 4 cm length with one bud were planted in each pot (treatments 1, 2, 4 and 5). Two stalks with three buds were planted in each control pot (treatments 3 and 6) to simulate conventional planting. A layer of 3 cm of soil was used to cover the carretels. The carretels of treatments 1 and 2 were treated with 1200 g ai.ha^−1 of imidacloprid, by dipping the carretels in the slurry for 3 min, based on the uptake capacity of carretels. The stalks were treated simulating a furrow application at 100 L.ha^−1 of slurry. Experimental design adopted was randomized complete block with four replications. The pots were maintained with adequate moisture during the test. Evaluations of: plant height, leaf width, culm diameter and number of tillers were done at 20, 30 and 42 days after planting.

Variety RB 86-7515 = test: Greenhouse pot test: effect of formulated thiamethoxam on vigour; assay type: in vivo, sugarcane
Description: This trial was conducted on Variety RB 86-7515.

[4] = system: sugar cane Variety RB 86-7515; test: Greenhouse pot test: effect of formulated abamectin on vigour (tillers, plant height, leaf width, culm diameter); assay type: in vivo
Description: Greenhouse test with sugarcane buds growing in pots were conducted to study the effect of formulated abamectin regarding “vigour”, tillers, plant height, leaf width and culm diameter on sugar cane Variety RB 86-7515.
1) carretel with one bud treated with abamectin 2) carretel with one bud treated with abamectin+15% v/v of polymer 3) stalk with 3 buds untreated 4) carretel with one bud untreated 5) carretel with one bud untreated+15% v/v of polymer 6) stalk with 3 buds treated with abamectin.
Twenty 1 L pots were filled with 16 L of clay soil, 1.6 L of sand and 8 g of nitrogen, 28 g of phosphorus (P2O5) and 16 g of potassium (K2O). Six carretels of 4 cm length with only one bud were planted in each pot (treatments 1, 2, 4 and 5). Two stalks with three buds were planted in each control pot (treatments 3 and 6) to simulate conventional planting. A layer of 3 cm of soil was used to cover the carretels. The carretels of treatments 1, 2 were treated with 200 ml/ha of abamectin, by dipping the carretels in the slurry for 3 min, based on the uptake capacity of carretels. The stalks were treated simulating a furrow application at 100 L.ha^−1 of slurry. Experimental design adopted was randomized complete block with four replications. The pots were maintained with adequate moisture during the test. […]

CN/C(=N\[N+](=O)[O-])NCc1cnc(Cl)s1 [Clothianidin, clothianidin]
number of tillers in comparison with the corresponding control (untreated, one-bud) [1]: increased number of tillers
plant height in comparison with the corresponding control (untreated, one-bud) [1]: slight reduction in the plant height

N#Cc1nn(-c2c(Cl)cc(C(F)(F)F)cc2Cl)c(N)c1[S+]([O-])C(F)(F)F (stereo not shown) [Fipronil, fipronil]
height of the resultant plants in comparison with the control [2]: decreased the height of the resultant plants in comparison with the control
number of tillers in comparison with the control [2]: increased the number of tillers present on the plants

O=[N+]([O-])NC1=NCCN1Cc1ccc(Cl)nc1 [Imidacloprid, imidacloprid]
number of tillers in comparison with the control [3]: increase in the number of tillers in comparison with the control

CN1COCN(Cc2cnc(Cl)s2)/C1=N\[N+](=O)[O-] [Thiamethoxam, thiamethoxam]
increase in "quality" (Variety RB 86-7515; against the other treatments, not apparent from the listed parameters): greater than the other treatments
number of tillers in comparison with the corresponding controls (Variety RB 86-7515; carretels, result in words): increased number of tillers
plant height in comparison with the corresponding controls (Variety RB 86-7515; carretels, result in words): reduced plant height

abamectin
Tillers ([4]; carretel with one bud, dipped 3 min, 100 g ai/ha (Untreated + Polymer 0.0), polymer 15% v/v where named, 42 days after planting): 14 number
number of tillers in comparison with the control ([4]; result in words): increase in the number of tillers in comparison with the control
